Results on eight compounds are retold here after patent publication US20170073337A1, “DIHYDROTHIAZINE AND DIHYDROOXAZINE DERIVATIVES HAVING BACE1 INHIBITORY ACTIVITY” (Shionogi & Co., Ltd., priority 2014, published 2017).

One data set addresses T1, Recombinant human BACE1 (Homo sapiens, UniProt P56817).
T1 construct: purchased R&D Systems
The data set is described as follows: Assay of BACE1 inhibitory activity: 96-well. The data set is classed as biochemical. The following applies: Assay format 96-well. As for the experimental part:
48.5 μL of substrate peptide solution (Biotin-XSEVNLDAEFRHDSGC-Eu: X=ε-amino-n-capronic acid. Eu=Europium cryplate) was added to each well of 96-hole half-area plate (a black plate: Costar), and after addition of 0.5 μl of the compound of the present invention (DMSO solution) and 1 μl of Recombinant human BACE1(R&D Systems), the reaction mixture was incubated at 30° C. for 3.5 hours. The substrate peptide was synthesized by reacting Cryptate TBPCOOH mono SMP (CIS bio international) with Biotin-XSEVNLDAEFRHDSGC (Peptide Institute, Inc.).
After the incubation for reaction, 50 μl of 8.0 μg/ml Streptavidin-XL665 (CIS bio international) dissolved in phosphate buffer (150 mmol/L […]—KH2PO4, pH 7.0, 0.008% Triton X-100, 0.8 mol/L KF) was added to each well and left stand at 30° C. for 45 minutes.

The next data set can be described thus: Solubility test. The class given is physicochemical. Conditions: kinetic from dmso stock; for solubility kinetic at 16 h: 25 °C. The method, boiled down: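 Dissolved concentration determined by LC/MS or SPE/MS (absolute calibration) in diluted filtrates, after 2 μL of 10 mmol/L DMSO stock was added to 198 μL JP 1st or JP 2nd fluid and equilibrated either 1 h with shaking at room temperature or 16 h standing at 25 °C.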

For the next data set, the target named is T2, CYP2C19 (Homo sapiens, UniProt P33261).
T2 construct: The commercially available pooled human liver microsomes are used as an enzyme resource; from tissue; host or cells: pooled human liver microsomes
T2 sequence (P33261 whole entry): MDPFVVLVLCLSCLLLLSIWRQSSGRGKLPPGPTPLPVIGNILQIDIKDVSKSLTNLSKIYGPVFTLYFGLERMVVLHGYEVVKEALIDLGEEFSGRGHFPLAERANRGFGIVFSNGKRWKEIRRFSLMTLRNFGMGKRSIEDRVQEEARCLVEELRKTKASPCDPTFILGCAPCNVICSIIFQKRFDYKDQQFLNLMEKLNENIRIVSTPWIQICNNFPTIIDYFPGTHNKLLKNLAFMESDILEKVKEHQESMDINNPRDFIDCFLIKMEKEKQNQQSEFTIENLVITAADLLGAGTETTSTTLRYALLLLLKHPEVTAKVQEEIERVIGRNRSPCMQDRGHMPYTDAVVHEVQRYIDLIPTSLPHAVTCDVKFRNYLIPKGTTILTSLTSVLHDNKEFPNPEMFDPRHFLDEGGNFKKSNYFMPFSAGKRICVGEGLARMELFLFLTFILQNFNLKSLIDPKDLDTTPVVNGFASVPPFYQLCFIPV
The data set is described as follows: CYP inhibition test (CYP2C19). The data set is classed as in vitro ADME. The following applies: pooled human liver microsomes; mephenytoin 4′-hydroxylation. A digest of the protocol: (§1)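 Metabolite formation was quantified by LC/MS/MS: dextrorphan (2D6, 5 μmol/L dextromethorphan), terfenadine alcohol (3A4, 1 μmol/L terfenadine), 4′-hydroxymephenytoin (2C19, 50 μmol/L S-mephenytoin) and hydroxytolbutamide (2C9, 100 μmol/L tolbutamide). Reactions used NADPH-started pooled human liver microsomes (0.2 mg/mL) at 37 °C with compound at 1–20 μmol/L (four points). IC50 was calculated by logistic model relative to the DMSO control.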

The target of data set [1] is T3, human ether-a-go-go related gene (hERG) channel (Homo sapiens, UniProt Q12809).
T3 construct: expressed in transfected cells; host or cells: CHO cells
T3 sequence (Q12809 whole entry): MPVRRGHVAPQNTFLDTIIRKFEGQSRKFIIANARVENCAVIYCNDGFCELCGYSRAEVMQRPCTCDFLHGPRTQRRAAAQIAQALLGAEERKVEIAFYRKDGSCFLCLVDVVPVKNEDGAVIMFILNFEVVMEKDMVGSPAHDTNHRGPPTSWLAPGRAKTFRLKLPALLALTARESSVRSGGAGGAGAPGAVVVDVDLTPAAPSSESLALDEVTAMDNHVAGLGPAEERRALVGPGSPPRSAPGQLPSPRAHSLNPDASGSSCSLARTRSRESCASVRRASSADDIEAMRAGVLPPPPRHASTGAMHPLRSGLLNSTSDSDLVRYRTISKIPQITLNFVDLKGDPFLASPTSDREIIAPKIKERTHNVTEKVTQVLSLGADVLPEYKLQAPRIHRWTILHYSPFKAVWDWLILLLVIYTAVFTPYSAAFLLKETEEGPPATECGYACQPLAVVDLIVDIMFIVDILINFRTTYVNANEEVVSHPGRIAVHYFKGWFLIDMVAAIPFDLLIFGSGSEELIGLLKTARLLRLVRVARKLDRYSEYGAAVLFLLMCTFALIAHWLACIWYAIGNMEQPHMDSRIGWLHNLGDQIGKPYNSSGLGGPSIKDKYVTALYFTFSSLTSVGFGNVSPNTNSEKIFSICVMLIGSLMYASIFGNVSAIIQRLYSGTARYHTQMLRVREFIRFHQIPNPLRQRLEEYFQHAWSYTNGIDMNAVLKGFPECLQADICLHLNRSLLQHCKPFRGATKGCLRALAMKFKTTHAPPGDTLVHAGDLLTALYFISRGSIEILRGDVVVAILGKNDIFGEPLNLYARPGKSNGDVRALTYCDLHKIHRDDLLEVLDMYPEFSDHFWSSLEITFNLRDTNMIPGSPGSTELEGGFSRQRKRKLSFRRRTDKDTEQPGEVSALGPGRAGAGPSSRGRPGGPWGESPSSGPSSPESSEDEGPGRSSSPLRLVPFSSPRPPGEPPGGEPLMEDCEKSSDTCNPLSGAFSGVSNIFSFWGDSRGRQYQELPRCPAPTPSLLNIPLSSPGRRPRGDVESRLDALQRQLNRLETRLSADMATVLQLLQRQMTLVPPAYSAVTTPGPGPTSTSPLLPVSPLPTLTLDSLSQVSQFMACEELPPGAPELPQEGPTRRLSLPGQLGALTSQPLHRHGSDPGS
The data set is described as follows: hERG test. Conditions: % inhibition of IKr tail peak current at 3 uM; CHO cells expressing hERG. The class given is cell-based. A digest of the protocol: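 IKr was recorded from hERG-expressing CHO cells by automated whole-cell patch clamp at a holding potential of −80 mV. A −50 mV leak step was followed by a 2 s depolarization to +20 mV and a 2 s repolarization to −50 mV, when current was measured.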
A general note: The hERG channel carries a current that helps repolarise heart muscle cells.

Another data set deals with T4, CYP1A2 (Homo sapiens, UniProt P05177).
T4 construct: The commercially available pooled human liver microsomes are used as an enzyme resource; from tissue; host or cells: pooled human liver microsomes
T4 sequence (P05177 1-516): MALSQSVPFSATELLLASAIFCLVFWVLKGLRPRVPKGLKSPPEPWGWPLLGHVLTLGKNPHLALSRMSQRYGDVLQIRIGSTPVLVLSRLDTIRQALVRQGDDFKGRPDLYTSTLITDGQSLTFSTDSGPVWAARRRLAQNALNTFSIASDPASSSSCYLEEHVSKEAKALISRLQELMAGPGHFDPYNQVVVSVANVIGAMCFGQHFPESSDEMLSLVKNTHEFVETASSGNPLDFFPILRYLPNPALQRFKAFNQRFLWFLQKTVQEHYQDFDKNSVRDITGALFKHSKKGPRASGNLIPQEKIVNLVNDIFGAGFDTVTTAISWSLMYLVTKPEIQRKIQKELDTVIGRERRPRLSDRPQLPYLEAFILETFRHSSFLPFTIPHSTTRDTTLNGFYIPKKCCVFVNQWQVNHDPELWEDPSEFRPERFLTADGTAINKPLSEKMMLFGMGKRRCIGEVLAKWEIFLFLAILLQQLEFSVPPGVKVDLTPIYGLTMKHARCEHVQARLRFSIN
Put plainly: CYP inhibition test (CYP1A2). The data set is classed as in vitro ADME. Conditions: pooled human liver microsomes; 7-ethoxyresorufin O-deethylation. The method, boiled down: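 Inhibition of CYP1A2 was measured in commercially available pooled human liver microsomes (0.2 mg protein/mL) using 7-ethoxyresorufin O-deethylation with 0.5 μmol/L ethoxyresorufin. Test compound at 1, 5, 10, 20 μmol/L in […] Hepes buffer was incubated at 37° C. after NADPH addition; methanol/acetonitrile=1/1 (v/v) stopped the reaction, and resorufin was read fluorescently.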

The target of a further data set is T5, CYP2D6 (Homo sapiens, UniProt P10635).
T5 construct: The commercially available pooled human liver microsomes are used as an enzyme resource; from tissue; host or cells: pooled human liver microsomes
T5 sequence (P10635 whole entry): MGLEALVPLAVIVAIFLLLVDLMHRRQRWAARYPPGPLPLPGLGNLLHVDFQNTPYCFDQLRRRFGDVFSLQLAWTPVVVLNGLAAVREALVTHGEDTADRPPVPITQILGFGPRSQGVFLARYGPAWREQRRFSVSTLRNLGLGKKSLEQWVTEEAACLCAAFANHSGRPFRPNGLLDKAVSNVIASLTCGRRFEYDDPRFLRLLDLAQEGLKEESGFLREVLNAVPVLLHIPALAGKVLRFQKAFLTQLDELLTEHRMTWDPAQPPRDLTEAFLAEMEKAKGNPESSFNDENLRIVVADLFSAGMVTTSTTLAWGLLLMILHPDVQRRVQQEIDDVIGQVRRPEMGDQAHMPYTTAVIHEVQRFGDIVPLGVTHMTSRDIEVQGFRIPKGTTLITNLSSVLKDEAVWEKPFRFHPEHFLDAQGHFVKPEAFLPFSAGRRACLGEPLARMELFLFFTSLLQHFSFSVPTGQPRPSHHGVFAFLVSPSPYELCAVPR
The data set is described as follows: CYP inhibition test (CYP2D6). The data set is classed as in vitro ADME. Conditions: pooled human liver microsomes; dextromethorphan O-demethylation. The method, boiled down: as §1

Another data set addresses T6, CYP3A4 (Homo sapiens, UniProt P08684).
T6 construct: The commercially available pooled human liver microsomes are used as an enzyme resource; from tissue; host or cells: pooled human liver microsomes
The data set is described as follows: CYP inhibition test (CYP3A4). The following applies: pooled human liver microsomes; terfenadine hydroxylation. The class given is in vitro ADME. The method, boiled down:
as §1
On the technique in general: Microsomes from liver hold many membrane-bound enzymes, among them those of drug oxidation.

Another data set addresses T7, CYP2C9 (Homo sapiens, UniProt P11712).
T7 construct: The commercially available pooled human liver microsomes are used as an enzyme resource; from tissue; host or cells: pooled human liver microsomes
Put plainly: CYP inhibition test (CYP2C9). The class given is in vitro ADME. Conditions: pooled human liver microsomes; tolbutamide methyl-hydroxylation. A digest of the protocol:
as §1

Data set [2] relates to Aβ production in neuroblastoma SH-SY5Y cells (SH/APPwt). The data set is described as follows: β-amyloid (Aβ) production inhibitory effect in cell: 96-well. The data set is classed as cell-based. Conditions: Homo sapiens, Assay format 96-well. As for the experimental part: Neuroblastoma SH-SY5V cells (SH/APPwt) with human wild-type R-APP excessively expressed therein were prepared at 8×10^5 cells/mL, and 150 μl portions thereof were inoculated into each well of a 96-well culture plate (Falcon). The cells were cultured for 2 hours at […]. in a 5% gaseous carbon dioxide incubator. […] Namely, the final DMSO concentration was 1%, and the amount of the cell culture was 200 μl. After the incubation was performed for 24 hours from the addition of the test compound, 100 μl of the culture supernatant was collected from each fraction. The amount of the Aβ in each fraction was measured. The Aβ amount was measured as follows. 10 μl of a homogeneous time resolved fluorescence (HTRF) measurement reagent (Amyloid β1-40 peptide: CIS bio international) and 10 μof the culture supernatant were put into a 384-well half area microplate (black microplate, Costar) and mixed with each other, and then left standing overnight at 4° C. while the light was shielded.

The nature of another data set: Metabolic stability test. The following applies: human liver microsomes, 37° C., 30 minutes, NADPH. The data set is classed as in vitro ADME. A digest of the protocol:
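Parent compound was measured by LC/MS/MS or SPE/MS after a methanol/acetonitrile quench and reported as % remaining, with the 0 min sample set to 100%. Incubations ran 30 min at 37 °C in pH 7.4 Tris buffer containing pooled human liver microsomes at 0.5 mg protein/mL and 1 mmol/L NADPH.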

The mark [3] stands for this setting: JP 1st fluid, pH 1.2, simulated gastric fluid, read-out: JP1.
Setting [4] is: JP 2nd fluid A, pH 6.8, aqueous buffer, read-out: JP2_μM.

≈ marks a conversion by molar mass, not a printed value. Where two headings read alike, the source gives them in different places. Some results are limits rather than exact numbers.

T1 sequence (P56817 46-501): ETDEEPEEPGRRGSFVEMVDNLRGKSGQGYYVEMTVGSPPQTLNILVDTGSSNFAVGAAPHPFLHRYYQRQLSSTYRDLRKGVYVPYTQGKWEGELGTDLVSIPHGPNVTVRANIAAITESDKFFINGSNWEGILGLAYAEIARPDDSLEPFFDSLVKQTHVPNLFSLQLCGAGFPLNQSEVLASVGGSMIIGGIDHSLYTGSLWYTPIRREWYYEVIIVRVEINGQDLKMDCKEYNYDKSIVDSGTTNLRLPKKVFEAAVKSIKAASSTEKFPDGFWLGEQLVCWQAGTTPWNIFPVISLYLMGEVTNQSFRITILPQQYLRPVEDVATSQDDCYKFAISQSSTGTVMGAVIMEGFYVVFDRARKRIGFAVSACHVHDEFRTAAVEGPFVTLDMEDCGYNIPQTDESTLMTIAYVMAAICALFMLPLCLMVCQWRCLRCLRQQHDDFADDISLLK
T6 sequence (P08684 whole entry): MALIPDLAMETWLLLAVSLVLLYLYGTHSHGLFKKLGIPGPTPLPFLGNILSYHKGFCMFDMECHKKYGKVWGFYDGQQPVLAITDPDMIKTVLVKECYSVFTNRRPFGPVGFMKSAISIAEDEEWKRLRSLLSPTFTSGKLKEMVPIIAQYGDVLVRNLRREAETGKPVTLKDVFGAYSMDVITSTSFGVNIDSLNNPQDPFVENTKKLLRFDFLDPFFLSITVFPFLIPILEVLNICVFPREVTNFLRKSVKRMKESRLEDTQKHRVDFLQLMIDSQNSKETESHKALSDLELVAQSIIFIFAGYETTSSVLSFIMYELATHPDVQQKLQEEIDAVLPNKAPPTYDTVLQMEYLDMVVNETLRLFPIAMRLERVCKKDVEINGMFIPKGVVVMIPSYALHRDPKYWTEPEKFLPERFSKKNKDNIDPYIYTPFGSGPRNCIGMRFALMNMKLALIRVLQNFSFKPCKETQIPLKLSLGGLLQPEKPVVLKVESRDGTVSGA
T7 sequence (P11712 whole entry): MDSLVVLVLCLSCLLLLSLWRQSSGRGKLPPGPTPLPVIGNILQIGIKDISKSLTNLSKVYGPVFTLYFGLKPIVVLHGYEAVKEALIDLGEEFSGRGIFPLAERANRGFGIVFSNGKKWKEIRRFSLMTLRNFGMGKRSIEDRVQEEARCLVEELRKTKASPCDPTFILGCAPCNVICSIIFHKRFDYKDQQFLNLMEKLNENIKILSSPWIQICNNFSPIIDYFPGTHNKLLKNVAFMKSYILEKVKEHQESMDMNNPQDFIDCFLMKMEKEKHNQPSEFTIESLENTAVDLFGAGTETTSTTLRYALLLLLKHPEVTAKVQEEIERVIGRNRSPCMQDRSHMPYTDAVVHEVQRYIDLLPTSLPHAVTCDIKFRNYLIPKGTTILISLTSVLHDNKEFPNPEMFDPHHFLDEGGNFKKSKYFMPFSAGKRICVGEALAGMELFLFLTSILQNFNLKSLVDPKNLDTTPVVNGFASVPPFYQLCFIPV

In general, IC50 refers to the concentration that inhibits the measured activity by half. With `CO[C@H]1[C@@H](CF)OC(N)=N[C@]1(C)c1cc(NC(=O)c2ncc(Cl)cc2Cl)ccc1Cl` [Compound I-22], the 50% inhibitory concentration (IC50) at Recombinant human BACE1 is 0.023 µM; at CYP2C19 it was not below 20 µM; at CYP1A2 it was not below 20 µM; at CYP2D6, not below 10 µM; against CYP3A4 it was not below 20 µM; against CYP2C9, not below 20 µM. For the same compound, in data set [2], the IC50 was 0.00422 µM. In addition, the values for the solubility kinetic at 16 h in the data set “Solubility test” (setting [3]) and in “Solubility test” (setting [4]) were 31.2 µM (≈ 14.8 µg/mL) and more than 50 µM, respectively. In [1], the “hERG_3 uM_%” value came out at 14.2%.

Take `CO[C@H]1[C@@H](CF)OC(N)=N[C@]1(C)c1cc(NC(=O)c2ccc(Cl)cn2)ccc1F` [Compound I-23]: the half-inhibitory concentration (IC50) on Recombinant human BACE1 is 0.0344 µM; at CYP2C19, not below 20 µM; at CYP1A2 it was not below 20 µM; against CYP2D6, not below 20 µM; against CYP3A4, not below 20 µM; against CYP2C9, not below 20 µM. The IC50 in [2] amounted to 0.00153 µM. Also, the results for the solubility kinetic at 16 h in the data set “Solubility test” (setting [3]) and in “Solubility test” (setting [4]) were 46.7 µM (≈ 19.8 µg/mL) and more than 50 µM, respectively. Moreover, in the data set “Metabolic stability test”, the remaining % is recorded as 86.6%.

`C[C@]1(c2nc(NC(=O)c3ccc(Cl)cn3)ccc2F)N=C(N)S[C@H](CF)[C@@H]1F` [Compound I-6]: the IC50 is 0.015 µM at Recombinant human BACE1; not below 10 µM on CYP2C19; not below 20 µM against CYP1A2; not below 20 µM against CYP3A4; 0.00129 µM in data set [2].

Consider `C[C@]1(c2cc(NC(=O)c3ccc(C#N)cn3)ccc2F)N=C(N)OCC12CC(F)(F)C2` [Compound I-43], for which the half-inhibitory concentration (IC50) is 0.0218 µM at Recombinant human BACE1; not below 20 µM on CYP2C19; not below 20 µM on CYP1A2; not below 20 µM at CYP2D6; not below 20 µM at CYP3A4; not below 20 µM against CYP2C9. The half-inhibitory concentration (IC50) in data set [2] amounted to 0.000615 µM. Also, the solubility kinetic at 16 h in “Solubility test” (setting [3]) was 29.9 µM (≈ 12.8 µg/mL); in the data set “Solubility test” (setting [4]), more than 50 µM. Besides, the remaining % in the data set “Metabolic stability test” came to 84.5%.

Consider `CO[C@H]1[C@@H](C(F)(F)F)OC(N)=N[C@]1(C)c1cc(NC(=O)c2ccc(C#N)cn2)ccc1F` [Compound I-34], for which the half-inhibitory concentration (IC50) at Recombinant human BACE1 is 0.0165 µM; against CYP2C19, not below 20 µM; against CYP1A2, not below 20 µM; at CYP2D6, not below 20 µM; at CYP3A4, not below 20 µM; against CYP2C9, not below 20 µM. The compound further gave a concentration for half-maximal inhibition (IC50) in [2] of 0.00185 µM. Further, the solubility kinetic at 16 h in “Solubility test” (setting [3]) was 44.4 µM (≈ 20 µg/mL); in “Solubility test” (setting [4]), more than 50 µM. Also, in [1], the “hERG_3 uM_%” value is 15.5%.

`C[C@]1(c2nc(NC(=O)c3cnc(OCF)cn3)ccc2F)N=C(N)S[C@H](CF)[C@@H]1F` [Compound I-5]: the IC50 on Recombinant human BACE1 was 0.0299 µM; against CYP2C19, not below 20 µM; on CYP1A2, not below 20 µM; at CYP3A4, not below 20 µM; against CYP2C9, not below 10 µM; in [2], 0.00288 µM. Also, the solubility kinetic at 16 h in “Solubility test” (setting [3]) was 34.3 µM (≈ 15.2 µg/mL); in the data set “Solubility test” (setting [4]), more than 50 µM. Also, the “hERG_3 uM_%” value in [1] was found to be 27.7%.

With `COc1cnc(C(=O)Nc2ccc(F)c([C@@]3(C)N=C(N)O[C@H]4[C@@H]3OCC4(F)F)c2)cn1` [Compound I-36], the IC50 on Recombinant human BACE1 was 0.022 µM; against CYP2C19 it was not below 20 µM; at CYP1A2, not below 20 µM; against CYP2D6, not below 20 µM; on CYP3A4, not below 20 µM; against CYP2C9, not below 20 µM. Further, the IC50 in [2] was 0.00229 µM. Besides, the solubility kinetic at 1 h in the data set “Solubility test” (setting [3]) is 37.6 µM (≈ 16.4 µg/mL); in the data set “Solubility test” (setting [4]), 15.9 µM (≈ 6.95 µg/mL). Moreover, the “hERG_3 uM_%” value in [1] is reported as 29.9%.

On to `CO[C@H]1[C@@H](CF)OC(N)=N[C@]1(C)c1cc(NC(=O)c2ncc(Cl)cc2Cl)ccc1F` [Compound I-26], for which the IC50 on Recombinant human BACE1 is 0.0339 µM; on CYP2C19, not below 20 µM; on CYP2D6, not below 20 µM; at CYP3A4 it was not below 20 µM; against CYP2C9, not below 20 µM; in data set [2], 0.00176 µM. Further, the solubility kinetic at 16 h in “Solubility test” (setting [3]) is 41.9 µM (≈ 19.2 µg/mL); in “Solubility test” (setting [4]) it was more than 50 µM. Besides, the “hERG_3 uM_%” value in data set [1] is 29.6%. Further, the remaining % in the data set “Metabolic stability test” worked out at 76%.
